# Reference: US9302999B2, “Substituted triazoles as herbicides” (E. I. DU PONT DE NEMOURS AND COMPANY, priority 2012, dated 2016)
# Tests used:
# [1] = test system: crabgrass, Brazil (Brazilian crabgrass, Digitaria horizontalis); assay: Test E pre-/postemergence: crabgrass, Brazil; format: in vivo; settings: scale 0 to 100
# Text: (§1) Seeds of plant species selected from corn (Zea mays), soybean (Glycine max), velvetleaf (Abutilon theophrasti), lambsquarters (Chenopodium album), poinsettia, wild (wild poinsettia, Euphorbia heterophylla), pigweed, palmer (palmer pigweed, Amaranthus palmeri), waterhemp (common waterhemp, Amaranthus rudis), smartweed (ladysthumb smartweed, Polygonum persicaria), surinam grass (Brachiaria decumbens), crabgrass, large (large crabgrass, Digitaria sanguinalis), crabgrass, Brazil (Brazilian crabgrass, Digitaria horizontalis), panicum, fall (fall panicum, Panicum dichotomiflorum), foxtail, giant (giant foxtail, Setaria faberii), foxtail, green (green foxtail, Setaria viridis), goosegrass (Eleusine indica), johnsongrass (Sorghum halepense), ragweed (common ragweed, Ambrosia elation), barnyardgrass (Echinochloa crus-galli), sandbur (southern sandbur, Cenchrus echinatus), arrowleaf sida (Sida rhombifolia), ryegrass, Italian (Italian ryegrass, Lolium multiflorum), dayflower, (VA) (Virginia dayflower, Commelina virginica), field bindweed (Convolvulus arvensis), cocklebur (common cocklebur, Xanthium strumarium), morningglory (Ipomoea coccinea), nightshade (eastern black nightshade, Solanum ptycanthum), kochia (Kochia scoparia), nutsedge, yellow (yellow nutsedge, Cyperus esculentus) and beggarticks (hairy beggarticks, Bidens pilosa) were planted into a silt loam soil and treated preemergence with test chemicals formulated in a non-phytotoxic solvent mixture which included a surfactant. At the same time, plants selected from these crop and weed species were planted in pots containing a growing medium comprising spaghnum peat moss, vermiculite, wetting agent and starter nutrients and treated with postemergence applications of some of the test chemicals formulated in the same manner. Plants ranged in height from 2 to 18 cm for postemergence treatments (1- to 4-leaf stage).
# (§2) Treated plants and controls were maintained in a greenhouse for 14 to 21 days, after which time all species were compared to controls and visually evaluated. Plant response ratings, summarized in Table E, are based on a scale of 0 to 100 where 0 is no effect and 100 is complete control. A dash (-) response means no test result.
# [2] = test system: nightshade (eastern black nightshade, Solanum ptycanthum); assay: Test E pre-/postemergence: nightshade; format: in vivo; settings: Preemergence, scale 0 to 100
# Text: as §1, §2
# [3] = test system: waterhemp (common waterhemp, Amaranthus rudis); assay: Test F pre-/postemergence: waterhemp; format: in vivo
# Text: (§3) Seeds of plant species selected from corn (Zea mays), soybean (Glycine max), velvetleaf (Abutilon theophrasti), lambsquarters (Chenopodium album), poinsettia, wild (wild poinsettia, Euphorbia heterophylla), pigweed, palmer (palmer pigweed, Amaranthus palmeri), waterhemp (common waterhemp, Amaranthus rudis), surinam grass (Brachiaria decumbens), crabgrass, Brazil (Brazilian crabgrass, Digitaria horizontalis), panicum, fall (fall panicum Panicum dichotomiflorum), crabgrass, large (large crabgrass, Digitaria sanguinalis), foxtail, giant (giant foxtail, Setaria faberii), foxtail, green (green foxtail Setaria viridis), goosegrass (Eleusine indica), ragweed (common ragweed, Ambrosia elatior), barnyardgrass (Echinochloa crus-galli), sandbur (southern sandbur, Cenchrus echinatus), arrowleaf sida (Sida rhombifolia), ryegrass, Italian (Italian ryegrass, Lolium multiflorum), dayflower, VA (Virginia (VA) dayflower, Commelina virginica), field bindweed (Convolvulus arvensis), cocklebur (common cocklebur, Xanthium strumarium), morningglory (Ipomoea coccinea), nightshade (eastern black nightshade, Solanum ptycanthum), kochia (Kochia scoparia), nutsedge, yellow (yellow nutsedge, Cyperus esculentus), johnsongrass (Sorghum halepense), smartweed (ladysthumb smartweed, Polygonum persicaria), and beggarticks (hairy beggarticks, Bidens pilosa), were planted into a silt loam soil and treated preemergence with test chemicals formulated in a non-phytotoxic solvent mixture which included a surfactant. At the same time, plants selected from these crop and weed species and also pigweed (Amaranthus retroflexus), waterhemp_RES1 (ALS/Triazine resistant common waterhemp, Amaranthus rudis) and waterhemp_RES2 (ALS/HPPD resistant common waterhemp, Amaranthus rudis) were planted in pots containing a planting medium comprising spaghnum peat moss, vermiculite, wetting agent and starter nutrients treated with postemergence applications of some of the test chemicals formulated in the same manner. Plants ranged in height from 2 to 18 cm for postemergence treatments (1- to 4-leaf stage).
# as §2
# [4] = test system: arrowleaf sida (Sida rhombifolia); assay: Test F pre-/postemergence: arrowleaf sida; format: in vivo
# Text: as §3, §2
# [5] = test system: goosegrass (Eleusine indica); assay: Test F pre-/postemergence: goosegrass; format: in vivo; settings: Preemergence
# Text: as §3, §2
# Barnyardgrass = assay: Test C preemergence: barnyardgrass; format: in vivo, Echinochloa crus-galli
# Text: Seeds of plant species selected from blackgrass (Alopecurus myosuroides), bromegrass, downy (downy bromegrass, Bromus tectorum), foxtail, green (green foxtail, Setaria viridis), ryegrass, Italian (Italian ryegrass, Lolium multiflorum), winter wheat (Triticum aestivum), wild oat (Avena fatua), galium (catchweed bedstraw, Galium aparine), bermudagrass (Cynodon dactylon), surinam grass (Brachiaria decumbens), cocklebur (common cocklebur, Xanthium strumarium), corn (Zea mays), large crabgrass (Digitaria sanguinalis), woolly cupgrass (Eriochloa villosa), foxtail, giant (giant foxtail, Setaria faberii), goosegrass (Eleusine indica), johnsongrass (Sorghum halepense), kochia (Kochia scoparia), lambsquarters (Chenopodium album), morningglory (Ipomoea coccinea), nightshade (eastern black nightshade, Solanum ptycanthum), nutsedge, yellow (yellow nutsedge, Cyperus esculentus), pigweed (Amaranthus retroflexus), ragweed (common ragweed, Ambrosia elation), soybean (Glycine max), common (oilseed) sunflower (Helianthus annuus), Russian thistle (Salsola kali) and velvetleaf (Abutilon theophrasti) were planted into a blend of loam soil and sand and treated preemergence with test chemicals formulated in a non-phytotoxic solvent mixture which included a surfactant.
# as §2, with “13” for “14”, “15” for “21”, “C,” for “E,”
# [6] = Preemergence, 16 g ai/ha, scale 0 to 100 (0 no effect, 100 complete control)
# [7] = Preemergence, 31 g ai/ha, scale 0 to 100 (0 no effect, 100 complete control)
# [8] = Preemergence, 125 g ai/ha, scale 0 to 100
# [9] = Preemergence, 62 g ai/ha, scale 0 to 100
# [10] = 16 g ai/ha, scale 0 to 100 (0 no effect, 100 complete control)
# [11] = 31 g ai/ha, scale 0 to 100 (0 no effect, 100 complete control)
# [12] = Postemergence, 8 g ai/ha, scale 0 to 100
# [13] = Postemergence, 16 g ai/ha, scale 0 to 100
# [14] = Postemergence, 31 g ai/ha, scale 0 to 100
# [15] = Postemergence, 62 g ai/ha, scale 0 to 100
# [16] = Postemergence, 125 g ai/ha, scale 0 to 100
# [17] = 62 g ai/ha, scale of 0 to 100, 0 is no effect, 100 is complete control
# [18] = 125 g ai/ha, scale 0 to 100, 0 no effect, 100 complete control
# [19] = Preemergence, 250 g ai/ha, scale 0 to 100
# [20] = 31 g ai/ha, scale 0 (no effect) to 100 (complete control)
compound,measurement,setting,value
"Cc1nn(-c2ccc(F)cc2)nc1Cc1ccnc(C(F)(F)F)c1 [Compound 16, 4-[[2-(4-fluorophenyl)-5-methyl-2H-1,2,3-triazol-4-yl]methyl]-2-(trifluoromethyl)pyridine]","Plant response rating: Crabgrass, Brazil","[1]; Preemergence, 8 g ai/ha",30
same,"Plant response rating: Crabgrass, Brazil","[1]; Preemergence, 16 g ai/ha",70
same,"Plant response rating: Crabgrass, Brazil","[1]; Preemergence, 31 g ai/ha",95
same,"Plant response rating: Crabgrass, Brazil","[1]; Preemergence, 62 g ai/ha",100
same,"Plant response rating: Crabgrass, Brazil","[1]; Preemergence, 125 g ai/ha",100
same,Plant response rating: Nightshade,[2]; 8 g ai/ha,0
same,Plant response rating: Nightshade,[2]; 16 g ai/ha,0
same,Plant response rating: Nightshade,[2]; 31 g ai/ha,50
same,Plant response rating: Nightshade,[2]; 62 g ai/ha,100
same,Plant response rating: Nightshade,[2]; 125 g ai/ha,100
"Cc1nn(-c2ccc(C(F)(F)F)cc2)nc1Cc1ccnc(C(F)(F)F)c1 [Compound 47, 4-[[5-methyl-2-[4-(trifluoromethyl)phenyl]-2H-1,2,3-triazol-4-yl]methyl]-2-(trifluoromethyl)pyridine]","Plant response rating: Crabgrass, Brazil","[1]; Postemergence, 250 g ai/ha",50
same,"Plant response rating: Crabgrass, Brazil","[1]; Postemergence, 16 g ai/ha",20
same,"Plant response rating: Crabgrass, Brazil","[1]; Postemergence, 31 g ai/ha",30
same,"Plant response rating: Crabgrass, Brazil","[1]; Postemergence, 62 g ai/ha",40
same,"Plant response rating: Crabgrass, Brazil","[1]; Postemergence, 125 g ai/ha",40
same,"Plant response rating: Crabgrass, Brazil","[1]; Preemergence, 16 g ai/ha",35
same,"Plant response rating: Crabgrass, Brazil","[1]; Preemergence, 31 g ai/ha",80
same,"Plant response rating: Crabgrass, Brazil","[1]; Preemergence, 62 g ai/ha",100
same,"Plant response rating: Crabgrass, Brazil","[1]; Preemergence, 125 g ai/ha",100
same,"Plant response rating: Crabgrass, Brazil","[1]; Preemergence, 250 g ai/ha",100
same,Plant response rating: Nightshade,[2]; 31 g ai/ha,75
same,Plant response rating: Nightshade,[2]; 62 g ai/ha,98
same,Plant response rating: Nightshade,[2]; 125 g ai/ha,98
same,Plant response rating: Nightshade,[2]; 250 g ai/ha,98
"Cc1nn(-c2ccc(F)cc2)nc1Oc1ccnc(C(F)(F)F)c1 [Compound 129, 4-[[2-(4-fluorophenyl)-5-methyl-2H-1,2,3-triazol-4-yl]oxy]-2-(trifluoromethyl)pyridine]","Plant response rating: Crabgrass, Brazil","[1]; Preemergence, 8 g ai/ha",10
same,"Plant response rating: Crabgrass, Brazil","[1]; Preemergence, 16 g ai/ha",15
same,"Plant response rating: Crabgrass, Brazil","[1]; Preemergence, 31 g ai/ha",60
same,"Plant response rating: Crabgrass, Brazil","[1]; Preemergence, 62 g ai/ha",95
same,"Plant response rating: Crabgrass, Brazil","[1]; Preemergence, 125 g ai/ha",100
same,Plant response rating: Nightshade,[2]; 8 g ai/ha,0
same,Plant response rating: Nightshade,[2]; 16 g ai/ha,0
same,Plant response rating: Nightshade,[2]; 31 g ai/ha,0
same,Plant response rating: Nightshade,[2]; 62 g ai/ha,50
same,Plant response rating: Nightshade,[2]; 125 g ai/ha,60
Fc1ccc(-n2nc(Cc3ccnc(C(F)(F)F)c3)c(OCC(F)(F)F)n2)cc1 [Compound 142],"Plant response rating, Waterhemp",[3]; [6],98
same,"Plant response rating, Waterhemp",[3]; [7],98
same,"Plant response rating, Waterhemp",[3]; [8],100
same,"Plant response rating, Arrowleaf Sida",[4]; [6],0
same,"Plant response rating, Arrowleaf Sida",[4]; [7],30
same,"Plant response rating, Arrowleaf Sida",[4]; [9],30
same,"Plant response rating, Arrowleaf Sida",[4]; [8],35
same,"Plant response rating, Goosegrass",[5]; [10],40
same,"Plant response rating, Goosegrass",[5]; [11],70
same,"Plant response rating, Goosegrass","[5]; 62 g ai/ha, scale 0 to 100",100
same,"Plant response rating, Goosegrass","[5]; 125 g ai/ha, scale 0 to 100",100
Cc1nn(-c2ccc(F)c(F)c2)nc1Oc1ccnc(C(F)(F)F)c1 [Compound 145],"Plant response rating, Waterhemp",[3]; [12],90
same,"Plant response rating, Waterhemp",[3]; [13],90
same,"Plant response rating, Waterhemp",[3]; [14],95
same,"Plant response rating, Waterhemp",[3]; [15],95
same,"Plant response rating, Waterhemp",[3]; [16],95
same,"Plant response rating, Arrowleaf Sida",[4]; [12],30
same,"Plant response rating, Arrowleaf Sida",[4]; [13],40
same,"Plant response rating, Arrowleaf Sida",[4]; [14],50
same,"Plant response rating, Arrowleaf Sida",[4]; [15],60
same,"Plant response rating, Arrowleaf Sida",[4]; [16],70
CCCc1nn(-c2ccc(F)cc2)nc1Cc1ccnc(C(F)(F)F)c1 [Compound 153],"Plant response rating, Barnyardgrass","Barnyardgrass; 31 g ai/ha, scale of 0 to 100, 0 is no effect, 100 is complete control",90
same,"Plant response rating, Barnyardgrass",Barnyardgrass; [17],90
same,"Plant response rating, Barnyardgrass",Barnyardgrass; [18],100
same,"Plant response rating, Waterhemp",[3]; [6],65
same,"Plant response rating, Waterhemp",[3]; [7],100
same,"Plant response rating, Waterhemp",[3]; [8],100
same,"Plant response rating, Waterhemp",[3]; [19],100
same,"Plant response rating, Arrowleaf Sida",[4]; [6],5
same,"Plant response rating, Arrowleaf Sida",[4]; [7],5
same,"Plant response rating, Arrowleaf Sida",[4]; [9],25
same,"Plant response rating, Arrowleaf Sida",[4]; [8],25
same,"Plant response rating, Arrowleaf Sida",[4]; [19],65
same,"Plant response rating, Goosegrass",[5]; [10],80
same,"Plant response rating, Goosegrass",[5]; [11],95
same,"Plant response rating, Goosegrass","[5]; 62 g ai/ha, scale 0 to 100",98
same,"Plant response rating, Goosegrass","[5]; 125 g ai/ha, scale 0 to 100",100
same,"Plant response rating, Goosegrass","[5]; 250 g ai/ha, scale 0 to 100",100
CCc1nn(-c2ccc(F)cc2)nc1Oc1ccnc(C(F)(F)F)c1 [Compound 166],"Plant response rating, Barnyardgrass",Barnyardgrass; [20],5
same,"Plant response rating, Barnyardgrass",Barnyardgrass; [17],75
same,"Plant response rating, Barnyardgrass",Barnyardgrass; [18],98
CCCc1nn(-c2ccc(C(F)(F)F)c(F)c2)nc1Oc1ccnc(C(F)(F)F)c1 [Compound 185],"Plant response rating, Barnyardgrass",Barnyardgrass; [20],55
same,"Plant response rating, Barnyardgrass",Barnyardgrass; [17],98
same,"Plant response rating, Barnyardgrass",Barnyardgrass; [18],100
CCOc1nn(-c2ccc(Br)cc2)nc1Cc1ccnc(C(F)(F)F)c1 [Compound 189],"Plant response rating, Barnyardgrass","Barnyardgrass; 16 g ai/ha, scale 0 (no effect) to 100 (complete control)",25
same,"Plant response rating, Barnyardgrass",Barnyardgrass; [20],45
same,"Plant response rating, Barnyardgrass",Barnyardgrass; [17],98
same,"Plant response rating, Barnyardgrass",Barnyardgrass; [18],100
